Results from the supplement of paper PMC10307832.

How the values were obtained:
Experiment in all cases: relative viability (nuclei count vs DMSO), 5 days (fraction); higher = more cells survive
Venetoclax + Luminespib = compound: CC1(C)CCC(CN2CCN(c3ccc(C(=O)NS(=O)(=O)c4ccc(NCC5CCOCC5)c([N+](=O)[O-])c4)c(Oc4cnc5[nH]ccc5c4)c3)CC2)=C(c2ccc(Cl)cc2)C1 [Venetoclax] + CCNC(=O)c1noc(-c2cc(C(C)C)c(O)cc2O)c1-c1ccc(CN2CCOCC2)cc1 [Luminespib] (partner 0.01 µM)
In short: (§1)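 Relative viability was taken as the ratio of nuclei in treated wells to nuclei in vehicle wells. Lung cancer cell lines in 1536-well plates received compounds by pin tool one day after seeding, either one drug alone or a fixed anchor-drug dose plus five library-drug doses (not always all listed) in √10 steps. Nuclei were counted on 4× images after 5 days of treatment, and values are medians of duplicate plates.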

Venetoclax + Decitabine = compound: CC1(C)CCC(CN2CCN(c3ccc(C(=O)NS(=O)(=O)c4ccc(NCC5CCOCC5)c([N+](=O)[O-])c4)c(Oc4cnc5[nH]ccc5c4)c3)CC2)=C(c2ccc(Cl)cc2)C1 [Venetoclax] + Nc1ncn([C@H]2C[C@H](O)[C@@H](CO)O2)c(=O)n1 [Decitabine] (partner 2 µM)
In short: as §1

Venetoclax + Phenformin = compound: CC1(C)CCC(CN2CCN(c3ccc(C(=O)NS(=O)(=O)c4ccc(NCC5CCOCC5)c([N+](=O)[O-])c4)c(Oc4cnc5[nH]ccc5c4)c3)CC2)=C(c2ccc(Cl)cc2)C1 [Venetoclax] + N=C(N)NC(=N)NCCc1ccccc1 [Phenformin] (partner 250 µM)
In short: as §1

Selumetinib + Linsitinib = compound: Cn1cnc2c(F)c(Nc3ccc(Br)cc3Cl)c(C(=O)NOCCO)cc21 [Selumetinib] + C[C@]1(O)C[C@@H](c2nc(-c3ccc4ccc(-c5ccccc5)nc4c3)c3c(N)nccn32)C1 [Linsitinib] (partner 1 µM)
In short: as §1

Cell Line | relative viability (Venetoclax + Luminespib; first compound 0.01 µM) | relative viability (Venetoclax + Luminespib; first compound 0.03162 µM) | relative viability (Venetoclax + Luminespib; first compound 0.1 µM) | relative viability (Venetoclax + Luminespib; first compound 0.3162 µM) | relative viability (Venetoclax + Luminespib; first compound 1 µM) | relative viability (Venetoclax + Decitabine; first compound 0.01 µM) | relative viability (Venetoclax + Decitabine; first compound 0.03162 µM) | relative viability (Venetoclax + Decitabine; first compound 0.1 µM) | relative viability (Venetoclax + Decitabine; first compound 0.3162 µM) | relative viability (Venetoclax + Decitabine; first compound 1 µM) | relative viability (Venetoclax + Phenformin; first compound 0.01 µM) | relative viability (Venetoclax + Phenformin; first compound 0.03162 µM) | relative viability (Venetoclax + Phenformin; first compound 0.1 µM) | relative viability (Venetoclax + Phenformin; first compound 0.3162 µM) | relative viability (Venetoclax + Phenformin; first compound 1 µM) | relative viability (Selumetinib + Linsitinib; first compound 0.02 µM) | relative viability (Selumetinib + Linsitinib; first compound 0.06325 µM) | relative viability (Selumetinib + Linsitinib; first compound 0.2 µM) | relative viability (Selumetinib + Linsitinib; first compound 0.6325 µM)
NCI-H441 | 0.337 | 0.372 | 0.434 | 0.299 | 0.427 | 0.235 | 0.219 | 0.208 | 0.23 | 0.24 | 0.83 | 0.706 | 0.787 | 0.805 | 0.868 | 0.543 | 0.46 | 0.491 | 0.435
NCI-H2009 | 0.987 | 1.08 | 0.937 | 1 | 0.92 | 0.441 | 0.41 | 0.345 | 0.352 | 0.358 | 0.48 | 0.459 | 0.439 | 0.446 | 0.337 | 1.07 | 0.842 | 0.562 | 0.489
NCI-H1944 | 0.992 | 0.787 | 0.775 | 0.879 | 0.696 | 0.478 | 0.447 | 0.492 | 0.481 | 0.407 | 0.216 | 0.197 | 0.183 | 0.212 | 0.205 | 0.979 | 0.928 | 0.762 | 0.687
EPLC-272H | 0.64 | 0.368 | 0.212 | 0.171 | 0.367 | 0.391 | 0.378 | 0.328 | 0.371 | 0.445 | 0.353 | 0.312 | 0.286 | 0.321 | 0.295 | 0.968 | 1.09 | 0.848 | 1.06
NCI-H3122 | 0.0697 | 0.0939 | 0.105 | 0.0864 | 0.101 | 0.349 | 0.419 | 0.378 | 0.373 | 0.432 | 0.366 | 0.361 | 0.341 | 0.339 | 0.282 | 0.933 | 0.817 | 0.766 | 0.728
NCI-H2085 | 0.339 | 0.427 | 0.437 | 0.37 | 0.438 | 0.549 | 0.59 | 0.582 | 0.566 | 0.565 | 0.635 | 0.762 | 0.688 | 0.766 | 0.655 | 0.863 | 0.82 | 0.737 | 0.763
COR-L23 | 0.469 | 0.669 | 0.728 | 0.71 | 0.651 | 0.458 | 0.478 | 0.444 | 0.454 | 0.39 | 0.42 | 0.442 | 0.413 | 0.43 | 0.423 | 0.945 | 0.88 | 0.864 | 0.787
HCC-827 | 0.657 | 0.641 | 0.237 | 0.509 | 0.694 | 0.303 | 0.418 | 0.34 | 0.249 | 0.346 | 0.473 | 0.497 | 0.344 | 0.406 | 0.394 | 0.848 | 0.929 | 0.931 | 0.894
NCI-H1437 | 1.07 | 1.19 | 1.13 | 1.15 | 1.07 | 0.659 | 0.52 | 0.52 | 0.542 | 0.556 | 0.377 | 0.348 | 0.266 | 0.34 | 0.296 | 0.905 | 0.714 | 0.423 | 0.277
PC-14 | 0.175 | 0.122 | 0.15 | 0.153 | 0.154 | 0.298 | 0.164 | 0.224 | 0.207 | 0.213 | 0.562 | 0.747 | 0.717 | 0.709 | 0.499 | 0.935 | 0.87 | 0.912 | 0.9
BEN | 0.343 | 0.48 | 0.401 | 0.192 | 0.513 | 0.747 | 0.721 | 0.737 | 0.653 | 0.673 | 0.26 | 0.306 | 0.302 | 0.273 | 0.264 | 0.879 | 0.898 | 0.745 | 0.8
LOU-NH91 | 0.271 | 0.374 | 0.345 | 0.336 | 0.326 | 0.76 | 0.808 | 0.816 | 0.821 | 0.778 | 0.641 | 0.784 | 0.615 | 0.742 | 0.698 | 0.773 | 0.846 | 0.783 | 0.727
EKVX | 0.87 | 0.89 | 0.923 | 0.833 | 0.884 | 0.33 | 0.327 | 0.317 | 0.392 | 0.35 | 0.229 | 0.236 | 0.223 | 0.239 | 0.233 | 0.864 | 0.912 | 0.749 | 0.711
NCI-H1355 | 0.748 | 0.759 | 0.667 | 0.782 | 0.778 | 0.372 | 0.351 | 0.402 | 0.37 | 0.362 | 0.436 | 0.474 | 0.467 | 0.468 | 0.412 | 0.72 | 0.744 | 0.734 | 0.555
ABC-1 | 0.553 | 0.53 | 0.689 | 0.431 | 0.912 | 1.07 | 1.24 | 1.02 | 1.12 | 1.24 | 0.234 | 0.269 | 0.236 | 0.241 | 0.228 | 0.794 | 0.678 | 0.607 | 0.614
NCI-H727 | 0.465 | 0.439 | 0.209 | 0.303 | 0.357 | 0.918 | 1.07 | 1.04 | 0.704 | 0.891 | 0.509 | 0.63 | 0.504 | 0.625 | 0.526 | 0.17 | 0.207 | 0.168 | 0.166
NCI-H1666 | 0.894 | 1.08 | 0.953 | 0.973 | 0.996 | 0.719 | 0.783 | 0.748 | 0.676 | 0.741 | 0.546 | 0.605 | 0.531 | 0.582 | 0.56 | 0.643 | 0.614 | 0.606 | 0.54
NCI-H2126 | 0.866 | 0.95 | 0.991 | 0.961 | 0.87 | 0.579 | 0.616 | 0.601 | 0.56 | 0.548 | 0.528 | 0.56 | 0.513 | 0.582 | 0.51 | 0.679 | 0.674 | 0.595 | 0.538
NCI-H1793 | 0.152 | 0.194 | 0.164 | 0.19 | 0.162 | 0.301 | 0.58 | 0.521 | 0.45 | 0.49 | 0.457 | 0.354 | 0.271 | 0.36 | 0.303 | 0.883 | 0.817 | 0.419 | 0.392
LCLC-103H | 0.969 | 0.999 | 0.905 | 1.02 | 0.902 | 0.767 | 0.713 | 0.733 | 0.752 | 0.788 | 0.335 | 0.298 | 0.352 | 0.313 | 0.333 | 1.04 | 0.952 | 0.804 | 0.968
COR-L 105 | 1.03 | 0.61 | 0.522 | 0.712 | 0.625 | 0.581 | 0.589 | 0.694 | 0.76 | 0.652 | 0.583 | 0.462 | 0.462 | 0.493 | 0.458 | 1 | 0.828 | 0.606 | 0.623
HARA | 0.814 | 0.657 | 0.751 | 0.913 | 0.823 | 0.62 | 0.633 |  | 0.72 | 0.606 | 0.415 | 0.406 | 0.464 | 0.467 | 0.447 | 0.916 | 0.837 | 0.84 | 0.334
NCI-H2023 | 0.744 | 0.911 | 0.859 | 0.784 | 0.676 | 0.218 | 0.23 | 0.23 | 0.237 | 0.234 | 0.434 | 0.393 | 0.435 | 0.434 | 0.378 | 0.583 | 0.546 | 0.466 | 0.576
NCI-H1792 | 0.381 | 0.492 | 0.329 | 0.374 | 0.375 | 0.522 | 0.506 | 0.468 | 0.502 | 0.463 | 0.263 | 0.258 |  | 0.254 | 0.246 | 0.442 | 0.475 | 0.361 | 0.251
LXF-289 | 0.787 | 0.7 | 0.61 | 0.663 | 0.472 | 0.35 | 0.37 | 0.385 | 0.387 | 0.4 | 0.482 | 0.538 | 0.509 | 0.503 | 0.505 | 1 | 0.853 | 0.745 | 0.719
NCI-H2347 | 0.307 | 0.702 | 0.405 | 0.283 | 0.948 | 0.616 | 0.59 | 0.651 | 0.662 | 0.738 | 0.316 | 0.449 | 0.433 | 0.424 | 0.33 | 0.748 | 0.633 | 0.47 | 0.436
RERF-LC-KJ | 1.19 | 1.19 | 1.22 | 1.19 | 1.08 | 0.69 | 0.73 | 0.69 | 0.666 | 0.611 | 0.382 | 0.414 | 0.418 | 0.458 | 0.442 | 0.828 | 0.949 | 0.862 | 0.796
NCI-H596 | 1.03 | 0.947 | 1.03 | 0.994 | 1.06 | 1.16 | 0.998 | 0.923 | 0.914 | 0.935 | 0.818 | 0.665 | 0.649 | 0.809 | 0.659 | 1.07 | 1.02 | 1.01 | 0.776
